Reference: publication PMC10949010, “A myo-inositol dehydrogenase involved in aminocyclitol biosynthesis of hygromycin A” (Beilstein Journal of Organic Chemistry, 2024)

Assays:
Hyg17 = target: T1, Hyg17 (Streptomyces leeuwenhoekii, UniProt A0A0F7VN41); test: NADH formation, absorbance at […] nm, initial rates […]-5 min; type: biochemical; conditions: 100 mM CAPS, 50 mM NaCl, pH 10.5, 25 °C
T1 construct: cloned NdeI/XhoI in pTip-QC1, expressed in Rhodococcus jostii RHA1, Ni-NTA and size exclusion; primers encode N-terminus MTVAVVG and C-terminus SVPVAP before LE (XhoI)
T1 sequence (A0A0F7VN41 whole entry): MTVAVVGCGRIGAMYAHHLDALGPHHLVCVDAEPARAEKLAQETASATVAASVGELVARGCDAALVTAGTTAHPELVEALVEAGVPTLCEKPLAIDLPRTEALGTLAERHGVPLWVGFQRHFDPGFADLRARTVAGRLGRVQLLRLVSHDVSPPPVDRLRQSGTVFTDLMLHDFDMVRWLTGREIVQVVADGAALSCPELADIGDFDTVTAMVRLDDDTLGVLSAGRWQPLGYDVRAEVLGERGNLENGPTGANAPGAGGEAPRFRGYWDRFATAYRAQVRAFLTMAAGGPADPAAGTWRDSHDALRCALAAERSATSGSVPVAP

BsIDH = target: T2, BsIDH (Bacillus subtilis, UniProt P26935); test: thin-layer chromatography of ketone product; type: biochemical; conditions: 10 mM myo-inositol, 10 mM NAD+, 100 mM CAPS, 50 mM NaCl, pH 10.5
T2 construct: gene iolG; codon-optimised synthetic gene in pET28a, expressed in E. coli BL21 star (DE3), Ni-NTA and size exclusion
T2 sequence (P26935 whole entry): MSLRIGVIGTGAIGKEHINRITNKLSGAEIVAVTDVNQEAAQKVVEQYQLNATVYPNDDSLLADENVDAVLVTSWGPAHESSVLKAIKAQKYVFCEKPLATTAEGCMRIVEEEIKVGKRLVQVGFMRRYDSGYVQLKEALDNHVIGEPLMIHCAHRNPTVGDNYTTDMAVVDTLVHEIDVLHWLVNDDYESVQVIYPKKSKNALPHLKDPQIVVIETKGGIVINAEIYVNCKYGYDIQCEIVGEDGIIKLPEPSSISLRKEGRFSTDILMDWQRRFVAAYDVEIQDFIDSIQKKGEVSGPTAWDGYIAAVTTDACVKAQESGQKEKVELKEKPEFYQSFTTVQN

| Km (Hyg17; 10 mM myo-inositol) [mM] | Km (Hyg17; 10 mM NAD+) [mM] | SMILES | thin-layer chromatography of ketone product (BsIDH) |
| --- | --- | --- | --- |
| 4.2 ± 0.49 |  | NC(=O)c1ccc[n+]([C@@H]2O[C@H](COP(=O)(O)OP(=O)(O)OC[C@H]3O[C@@H](n4cnc5c(N)ncnc54)[C@H](O)[C@@H]3O)[C@@H](O)[C@H]2O)c1 [NAD^+] |  |
|  | 9 ± 1.1 | O[C@H]1[C@H](O)[C@@H](O)[C@H](O)[C@@H](O)[C@H]1O [myo-inositol] | We found that both enzymes generated a ketone product with identical retention factors |
|  | 20.3 ± 3.3 | O[C@H]1[C@H](O)[C@@H](O)[C@H](O)[C@@H](O)[C@@H]1O [scyllo-inositol] |  |
